Among the data in patent US5214037A, “Thioalkylthio cephalosporin derivatives” (Shionogi & Co., Ltd., priority 1990, dated 1993) are MIC values, retold here.

Experiment in all cases: Antibacterial activity in vitro, minimal inhibitory concentration (two-fold agar dilution)
What all share (type): cell-based
Background: In agar dilution, organisms are placed on agar that contains the substance at set levels.

Test [1] deals with Escherichia coli 7437. The settings on record: Escherichia coli 7437, agar dilution. As for the experimental part: (§1) Antibacterial activity in vitro : A solution of the test compound in 0.01N-aqueous sodium hydrogen carbonate was applied to an agar plate by two-fold dilution method and the minimal inhibitory concentrations against Gram-negative and Gram-positive bacteria were measured according to the standard method of the Japan Society of Chemotherapy.

Test [2] concerns Haemophilus influenzae SR3508. As for the experimental part: as §1
Test [3] deals with Enterobacter cloacae SR233. As for the experimental part: as §1
Test [4] relates to Klebsiella pneumoniae SR1. The following applies: unit cut off in print. As for the experimental part: as §1

The structures appear in SMILES notation. In brackets after ≈: the same amount, converted by molar mass.

Turning to `Cn1cc(SCSC2=C(C(=O)O)N3C(=O)[C@@H](NC(=O)/C(=N\O)c4csc(N)n4)[C@H]3SC2)nn1` [Example 7-17, 7μ-[(Z)-2-(2-aminothiazol-4-yl) -2-hydroxyiminoacetamido]-3-(1-methyl-1,2,3-triazol-4-yl)thiomethylthio-3-cephem-4-carboxylic acid], the MIC in test [1] came to 0.02 µg/mL (≈ 0.0378 µM); in test [2], 0.1 µg/mL (≈ 0.189 µM); in test [3] it was 0.8 µg/mL (≈ 1.51 µM).

Consider `Nc1nc(/C(=N/O)C(=O)N[C@@H]2C(=O)N3C(C(=O)O)=C(SCSc4nc[nH]n4)CS[C@H]23)cs1` [Example 7-20, 7μ-[(Z)-2-(2-aminothiazol-4-yl)-2-hydroxyiminoacetamido]-3-(1,2,4-triazol-3-yl)thiomethylthio-3-cephem-4-carboxylic acid], for which the MIC in test [4] was determined as 0.05 µg/mL (≈ 0.0972 µM); in test [1] it was 0.02 µg/mL (≈ 0.0389 µM); in test [3], 0.8 µg/mL (≈ 1.55 µM).
